According to patent US20180050993A1, “NOVEL FLUORINATED DERIVATIVES AS EGFR INHIBITORS USEFUL FOR TREATING CANCERS” (Trillium Therapeutics Inc., priority 2015, published 2018):
Where a name gives a salt, the structure may show the parent alone. Read-outs that look alike come from different tables or passages of the source. Values belong to the compound of their own block, whether it stands above or below them.

What was measured:
[1] = Brain and plasma concentrations after oral gavage in rat, sampling to 4 hours (Table 4); format: in vivo; conditions: Table 4 (4 hours); for AUClast / Cmax / Tmax: brain tissue, PO 50 mg/kg; for Cmax / Tmax / Kp at 4 h: male, Sprague-Dawley (SD); for Kp at 4 h: brain/plasma, po, 50 mg/kg
EGFR(L747-T751del, Sins) = assay: Kinome screen at 300 nM (qPCR competition binding)
[2] = Mouse liver microsomal stability; format: in vitro ADME; conditions: stability in pooled mouse (CD-1, male) liver microsomes 0.5 mg/ml, compound 1 μM, parent compound by LC/MS, in % (unit assumed)
Procedure: (§1) Working stocks were initially diluted to a concentration of 40.0 μM in 0.1 M potassium phosphate buffer before addition to the reaction vials. Pooled mouse (CD-1, male) or human (50 donors) liver microsomes were utilized at a final concentration of 0.5 mg/ml. Duplicate wells were used for each time point (0 and 30 minutes). Reactions were carried out at 37° C. in a shaker, and the final concentration of DMSO was kept constant at 0.01%. The final volume for each reaction was 100 μL, which includes the addition of an NADPH-Regeneration solution (NRS) mix. This NRS mix is comprised of glucose 6-phosphate dehydrogenase (0.4 U/mL), NADP+ (1.3 mM), MgCl2 (3.3 mM), and glucose 6-phosphate (3.3 mM) in assay mixtures. Upon completion of the 30 minute time point, reactions were terminated by the addition of 1.5-volumes (150 μL) of ice-cold, acetonitrile with 0.5% formic acid and internal standard. Samples were then centrifuged at 4,000 rpm for 10 minutes to remove debris and precipitated protein. Approximately 150 μL of supernatant was subsequently transferred to a new 96 well microplate for LC/MS analysis.
(§2) Narrow-window mass extraction LC/MS analysis was performed for all samples using a Waters Xevo quadrupole time-of-flight (QTof) mass spectrometer and an ACQUITY UPLC system, to determine relative peak areas of parent compound.
(§3) Human and mouse liver microsomes contain a wide variety of drug metabolizing enzymes and are commonly used to support in vitro ADME (absorption, distribution, metabolism and excretion) studies. These microsomes are used to examine the potential first-pass metabolism by-products of orally administered drugs. Representative compounds of the application were evaluated for their stability in human and mouse liver microsomes.

[3] = Human liver microsomal stability; format: in vitro ADME; conditions: stability in pooled human (50 donors) liver microsomes 0.5 mg/ml, compound 1 μM, parent compound by LC/MS
Procedure: as §1, §2, §3

EGFR = molecular target: T1, EGFR (Homo sapiens, UniProt P00533); assay: Kinase HotSpot profiling (Reaction Biology), 33P-ATP filter-binding; format: biochemical; conditions: WT EGFR
T1 construct: purchased Reaction Biology
Procedure: (§4) Base Reaction buffer; 20 mM Hepes (pH 7.5), 10 mM MgCl2, 1 mM EGTA, 0.02% Brij35, 0.02 mg/ml BSA, 0.1 mM Na3VO4, 2 mM DTT, 1% DMSO
(§5) *Required cofactors are added individually to each kinase reaction
(§6) 1. The indicated substrate was prepared in fresh Base Reaction Buffer.
(§7) 2. Any required cofactors were added to the substrate solution above.
(§8) 3. Indicated kinase was added into the substrate solution and gently mixed.
(§9) 4. Compounds in DMSO were added into the kinase reaction mixture by Acoustic technology (Echo550; nanoliter range) and incubated for 20 minutes at room temperature.
(§10) 5. 33P-ATP (specific activity 10 μCi/μl) was added into the reaction mixture to initiate the reaction.
(§11) 6. The kinase reaction was incubated for 2 hours at room temperature
(§12) 7. Reactions were spotted onto P81 ion exchange paper.
(§13) 8. Kinase activity was detected by filter-binding method.
(§14) Representative compounds of Formula I were evaluated against WT EGFR and mutant EGFR (L858R and L858R, T790M) kinases. IC50 concentrations are illustrated in Table 9.

EGFR (L858R) = molecular target: T2, EGFR (L858R) (Homo sapiens, UniProt P00533, L858R); assay: as above; format: biochemical; conditions: mutant EGFR L858R
T2 construct: purchased Reaction Biology
Procedure: as §4, §5, §6, §7, §8, §9, §10, §11, §12, §13, §14

EGFR (L858R, T790M) = molecular target: T3, EGFR (L858R, T790M) (Homo sapiens, UniProt P00533, L858R/T790M); assay: as above; format: biochemical; conditions: mutant EGFR L858R
T3 construct: purchased Reaction Biology
Procedure: as §4, §5, §6, §7, §8, §9, §10, §11, §12, §13, §14

HCC827 = assay: Comparison with 1st generation inhibitors against a lung cancer cell line (HCC827); format: cell-based; conditions: Homo sapiens, read-out: Biochemical IC50
[4] = Brain concentrations after PO administration in rat, peak at 8 hours (Table 5); format: in vivo; conditions: Table 5 (8 hours); for Kp at 8 h: brain/plasma, po, 50 mg/kg
P-gp = molecular target: T4, P-gp (Homo sapiens, UniProt P08183); assay: Evaluation of P-gp efflux in Caco-2 cell monolayers; format: in vitro ADME;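 note: Caco-2 monolayers dosed apically or basolaterally with test compound at 5 µM in HBSS with HEPES and glucose, 37 °C, donor and receiver sampled after 120 min, LC/MS peak areas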
T4 construct: host or cells: Caco-2 (C2BBe1)

EPHA6 [5] = molecular target: T5, EPHA6 (Homo sapiens, UniProt Q9UF33); assay: Kinome screen at 300 nM (qPCR competition binding); design: purchased DiscoveRx; host or cells: E. coli BL21-derived (T7 phage) or HEK-293; conditions: result in words
T5 sequence (Q9UF33 23-1036): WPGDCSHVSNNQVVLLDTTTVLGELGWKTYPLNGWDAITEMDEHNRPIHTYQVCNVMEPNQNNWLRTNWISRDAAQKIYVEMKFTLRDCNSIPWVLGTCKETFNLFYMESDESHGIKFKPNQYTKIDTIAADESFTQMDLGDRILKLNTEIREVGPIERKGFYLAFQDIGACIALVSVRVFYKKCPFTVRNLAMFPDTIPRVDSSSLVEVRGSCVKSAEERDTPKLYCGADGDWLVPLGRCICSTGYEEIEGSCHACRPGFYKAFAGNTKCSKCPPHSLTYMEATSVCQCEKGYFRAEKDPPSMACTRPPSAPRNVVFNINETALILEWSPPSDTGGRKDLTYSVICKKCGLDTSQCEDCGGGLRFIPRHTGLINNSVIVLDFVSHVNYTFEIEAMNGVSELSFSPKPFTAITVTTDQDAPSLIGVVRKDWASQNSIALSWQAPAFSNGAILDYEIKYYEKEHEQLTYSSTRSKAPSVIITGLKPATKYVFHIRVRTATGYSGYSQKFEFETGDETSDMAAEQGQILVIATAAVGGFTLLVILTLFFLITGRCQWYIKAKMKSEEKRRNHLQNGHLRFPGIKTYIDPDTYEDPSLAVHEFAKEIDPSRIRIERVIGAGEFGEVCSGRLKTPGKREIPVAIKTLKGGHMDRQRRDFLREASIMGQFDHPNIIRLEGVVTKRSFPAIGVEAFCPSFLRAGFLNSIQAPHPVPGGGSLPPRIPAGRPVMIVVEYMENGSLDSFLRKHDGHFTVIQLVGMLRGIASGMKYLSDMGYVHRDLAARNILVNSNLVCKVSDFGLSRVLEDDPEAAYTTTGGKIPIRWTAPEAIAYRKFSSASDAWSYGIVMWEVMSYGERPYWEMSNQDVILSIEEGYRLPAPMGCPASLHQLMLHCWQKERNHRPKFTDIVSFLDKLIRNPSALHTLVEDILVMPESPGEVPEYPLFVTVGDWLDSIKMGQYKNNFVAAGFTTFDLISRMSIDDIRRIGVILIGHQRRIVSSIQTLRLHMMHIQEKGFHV

EPHA6 [6] = molecular target: T5, EPHA6; assay: Binding constants (Kd) for EPHA6, kinase competition binding with qPCR readout
[7] = Sprague-Dawley, brain, PO 50 mg/kg

T4 sequence (P08183 whole entry): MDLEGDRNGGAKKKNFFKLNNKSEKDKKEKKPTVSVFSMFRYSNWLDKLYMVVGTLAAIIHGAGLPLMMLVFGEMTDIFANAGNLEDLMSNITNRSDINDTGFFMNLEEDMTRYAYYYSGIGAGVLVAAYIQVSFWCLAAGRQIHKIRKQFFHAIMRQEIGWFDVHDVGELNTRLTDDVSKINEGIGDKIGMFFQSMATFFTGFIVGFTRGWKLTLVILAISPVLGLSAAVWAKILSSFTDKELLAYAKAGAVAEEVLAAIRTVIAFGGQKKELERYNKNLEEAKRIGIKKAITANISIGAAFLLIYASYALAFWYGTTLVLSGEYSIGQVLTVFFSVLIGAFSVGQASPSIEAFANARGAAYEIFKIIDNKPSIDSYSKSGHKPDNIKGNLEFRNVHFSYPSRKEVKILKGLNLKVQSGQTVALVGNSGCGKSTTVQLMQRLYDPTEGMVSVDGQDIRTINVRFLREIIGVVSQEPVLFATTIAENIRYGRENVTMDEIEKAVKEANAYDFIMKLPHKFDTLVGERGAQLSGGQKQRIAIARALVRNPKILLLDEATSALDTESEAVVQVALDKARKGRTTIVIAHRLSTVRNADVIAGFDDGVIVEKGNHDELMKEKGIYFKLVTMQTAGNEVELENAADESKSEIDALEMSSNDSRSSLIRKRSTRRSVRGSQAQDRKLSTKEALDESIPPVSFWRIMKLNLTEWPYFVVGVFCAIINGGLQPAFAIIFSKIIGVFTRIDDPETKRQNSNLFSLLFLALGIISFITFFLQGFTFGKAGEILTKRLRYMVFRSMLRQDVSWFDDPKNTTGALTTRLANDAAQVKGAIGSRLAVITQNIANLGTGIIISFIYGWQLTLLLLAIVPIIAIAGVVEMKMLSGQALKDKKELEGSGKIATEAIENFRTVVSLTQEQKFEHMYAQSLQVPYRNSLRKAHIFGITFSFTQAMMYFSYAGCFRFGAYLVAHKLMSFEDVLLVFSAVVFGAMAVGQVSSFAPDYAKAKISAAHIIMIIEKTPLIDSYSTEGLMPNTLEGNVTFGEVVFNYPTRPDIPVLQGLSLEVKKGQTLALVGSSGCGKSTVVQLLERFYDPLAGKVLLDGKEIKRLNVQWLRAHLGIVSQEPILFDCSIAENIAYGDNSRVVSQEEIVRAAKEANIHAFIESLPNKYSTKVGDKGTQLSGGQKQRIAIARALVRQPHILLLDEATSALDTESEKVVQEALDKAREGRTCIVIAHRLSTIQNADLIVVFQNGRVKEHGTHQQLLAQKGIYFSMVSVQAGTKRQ
T1 sequence (P00533 25-1210): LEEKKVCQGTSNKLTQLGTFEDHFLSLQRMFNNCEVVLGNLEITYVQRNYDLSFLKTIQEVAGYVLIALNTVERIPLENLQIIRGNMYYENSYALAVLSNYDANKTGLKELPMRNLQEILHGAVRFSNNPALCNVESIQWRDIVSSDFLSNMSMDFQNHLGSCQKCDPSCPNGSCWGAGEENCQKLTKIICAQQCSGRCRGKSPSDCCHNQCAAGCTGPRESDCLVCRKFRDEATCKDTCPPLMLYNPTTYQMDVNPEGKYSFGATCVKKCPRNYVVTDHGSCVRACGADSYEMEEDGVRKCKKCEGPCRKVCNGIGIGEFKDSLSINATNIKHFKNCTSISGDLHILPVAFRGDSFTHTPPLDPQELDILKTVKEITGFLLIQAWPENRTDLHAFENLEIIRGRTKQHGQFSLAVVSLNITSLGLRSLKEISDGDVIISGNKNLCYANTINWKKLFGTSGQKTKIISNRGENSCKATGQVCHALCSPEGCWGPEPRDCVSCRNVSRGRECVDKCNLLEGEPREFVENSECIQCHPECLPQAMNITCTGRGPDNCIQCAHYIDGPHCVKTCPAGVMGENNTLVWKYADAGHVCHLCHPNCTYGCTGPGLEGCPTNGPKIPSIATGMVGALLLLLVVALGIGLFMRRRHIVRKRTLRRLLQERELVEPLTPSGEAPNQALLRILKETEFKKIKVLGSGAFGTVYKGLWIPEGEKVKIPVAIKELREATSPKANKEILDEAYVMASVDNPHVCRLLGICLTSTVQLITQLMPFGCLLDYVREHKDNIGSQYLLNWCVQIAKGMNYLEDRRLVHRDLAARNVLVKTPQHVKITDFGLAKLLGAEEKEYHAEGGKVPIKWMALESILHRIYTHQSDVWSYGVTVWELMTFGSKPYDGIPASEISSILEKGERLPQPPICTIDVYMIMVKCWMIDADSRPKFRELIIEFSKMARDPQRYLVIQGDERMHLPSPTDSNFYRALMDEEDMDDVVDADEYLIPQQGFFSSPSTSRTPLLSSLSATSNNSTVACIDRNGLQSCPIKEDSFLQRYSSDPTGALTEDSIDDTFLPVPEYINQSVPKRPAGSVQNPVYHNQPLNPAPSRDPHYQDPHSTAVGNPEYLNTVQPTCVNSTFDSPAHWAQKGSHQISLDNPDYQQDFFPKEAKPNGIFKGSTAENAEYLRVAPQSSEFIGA
T2 sequence (P00533 25-1210 L858R): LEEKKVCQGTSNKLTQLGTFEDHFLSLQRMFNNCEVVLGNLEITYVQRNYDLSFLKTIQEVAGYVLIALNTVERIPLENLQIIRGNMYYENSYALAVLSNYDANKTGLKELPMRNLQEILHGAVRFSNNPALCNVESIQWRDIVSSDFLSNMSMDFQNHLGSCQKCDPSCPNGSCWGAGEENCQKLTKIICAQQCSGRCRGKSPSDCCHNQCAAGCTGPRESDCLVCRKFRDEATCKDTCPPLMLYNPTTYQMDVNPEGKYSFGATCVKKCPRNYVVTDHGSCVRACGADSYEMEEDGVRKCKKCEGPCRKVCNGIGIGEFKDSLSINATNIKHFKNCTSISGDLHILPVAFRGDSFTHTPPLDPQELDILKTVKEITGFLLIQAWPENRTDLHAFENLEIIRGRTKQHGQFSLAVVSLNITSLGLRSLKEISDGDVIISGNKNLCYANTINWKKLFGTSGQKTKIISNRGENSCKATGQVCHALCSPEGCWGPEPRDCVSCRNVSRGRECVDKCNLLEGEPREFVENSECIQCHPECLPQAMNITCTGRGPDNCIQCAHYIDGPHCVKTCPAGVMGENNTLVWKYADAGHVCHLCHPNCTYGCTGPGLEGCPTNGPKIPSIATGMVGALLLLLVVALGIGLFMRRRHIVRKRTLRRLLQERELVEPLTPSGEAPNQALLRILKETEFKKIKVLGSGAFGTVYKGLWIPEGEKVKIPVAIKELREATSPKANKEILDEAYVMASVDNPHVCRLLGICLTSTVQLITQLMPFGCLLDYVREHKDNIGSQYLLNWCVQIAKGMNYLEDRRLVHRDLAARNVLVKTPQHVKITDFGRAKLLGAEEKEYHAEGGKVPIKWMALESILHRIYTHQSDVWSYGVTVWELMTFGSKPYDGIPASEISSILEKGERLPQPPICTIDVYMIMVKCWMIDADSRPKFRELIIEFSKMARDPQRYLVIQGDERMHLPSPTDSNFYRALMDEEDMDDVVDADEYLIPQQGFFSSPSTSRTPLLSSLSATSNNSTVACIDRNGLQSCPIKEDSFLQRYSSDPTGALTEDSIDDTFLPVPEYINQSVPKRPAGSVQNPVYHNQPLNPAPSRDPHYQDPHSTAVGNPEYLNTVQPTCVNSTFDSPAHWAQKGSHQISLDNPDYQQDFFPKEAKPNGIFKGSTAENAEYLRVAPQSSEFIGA
T3 sequence (P00533 25-1210 T790M/L858R): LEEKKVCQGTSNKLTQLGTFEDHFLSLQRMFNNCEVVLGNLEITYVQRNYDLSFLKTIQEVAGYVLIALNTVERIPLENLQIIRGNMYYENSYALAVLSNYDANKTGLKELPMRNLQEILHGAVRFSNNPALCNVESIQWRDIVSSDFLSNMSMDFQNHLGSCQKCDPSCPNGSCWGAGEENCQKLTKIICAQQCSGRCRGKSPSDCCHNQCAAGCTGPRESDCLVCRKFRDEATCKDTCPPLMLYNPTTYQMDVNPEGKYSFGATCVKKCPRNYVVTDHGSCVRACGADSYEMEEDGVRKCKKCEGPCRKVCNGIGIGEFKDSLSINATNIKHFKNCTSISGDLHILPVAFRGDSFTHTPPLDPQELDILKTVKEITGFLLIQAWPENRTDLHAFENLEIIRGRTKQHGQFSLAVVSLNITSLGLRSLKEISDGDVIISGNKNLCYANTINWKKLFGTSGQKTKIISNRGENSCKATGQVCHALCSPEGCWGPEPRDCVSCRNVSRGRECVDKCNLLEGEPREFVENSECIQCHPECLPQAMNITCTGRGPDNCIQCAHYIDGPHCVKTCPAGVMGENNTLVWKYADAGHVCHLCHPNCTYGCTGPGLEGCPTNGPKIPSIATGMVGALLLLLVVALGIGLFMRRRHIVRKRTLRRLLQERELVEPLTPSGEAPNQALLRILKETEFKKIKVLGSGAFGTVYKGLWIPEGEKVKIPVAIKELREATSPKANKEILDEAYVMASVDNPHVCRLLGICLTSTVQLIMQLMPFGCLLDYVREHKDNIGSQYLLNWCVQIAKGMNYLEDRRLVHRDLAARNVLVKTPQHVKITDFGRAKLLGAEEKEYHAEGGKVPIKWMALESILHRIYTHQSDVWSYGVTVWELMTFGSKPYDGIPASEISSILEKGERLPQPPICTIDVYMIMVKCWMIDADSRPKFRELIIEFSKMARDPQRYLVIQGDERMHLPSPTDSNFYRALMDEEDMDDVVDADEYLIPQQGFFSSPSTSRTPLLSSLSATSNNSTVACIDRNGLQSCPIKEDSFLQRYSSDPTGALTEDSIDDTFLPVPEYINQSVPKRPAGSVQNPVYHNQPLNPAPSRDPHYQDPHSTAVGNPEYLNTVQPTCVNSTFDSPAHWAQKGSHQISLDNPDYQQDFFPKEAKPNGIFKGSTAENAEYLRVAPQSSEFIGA

AUClast [1]: 4319 ng·h/g | Cmax [1]: 1710 ng/g | Tmax [1]: 4 h | % Control @ 300 nM (EGFR(L747-T751del, Sins)): 0.12% | MLM (30 min) [2]: 56.3 | HLM (30 min) [3]: 75.5%
Compound: C#Cc1cccc(Nc2ncnc3cc(OCCOC)c(OCCOC)cc23)c1 [Erlotinib, N-(3-ethynylphenyl)-6,7-bis(2-methoxyethoxy)quinazolin-4-amine, reference compound]

IC50 (EGFR): 0.0434 nM | IC50 (EGFR (L858R)): 0.0142 nM | IC50 (EGFR (L858R, T790M)): 4010 nM
Compound: COc1cc2ncnc(Nc3ccc(F)c(Cl)c3F)c2cc1OCCCN1CCC(OC(F)F)CC1 [2(q), N-(3-chloro-2,4-difluoro-phenyl)-6-[3-[4-(difluoromethoxy)-1-piperidyl]propoxy]-7-methoxy-quinazolin-4-amine]

IC50 (EGFR): 0.0138 nM | IC50 (EGFR (L858R)): 0.0164 nM | IC50 (EGFR (L858R, T790M)): 6820 nM
Compound: COc1cc2ncnc(Nc3ccc(F)c(Cl)c3F)c2cc1OC(=O)N1CC[C@@H](COC(F)F)C1 [2(Qq), [4-(3-chloro-2,4-difluoro-anilino)-7-methoxy-quinazolin-6-yl] (3R)-3-(difluoromethoxymethyl)pyrrolidine-1-carboxylate]

IC50 (HCC827): 21 nM | AUClast [1]: 22593 ng·h/g | Cmax [1]: 6980 ng/g | Tmax [1]: 4 h | Kp at 4 h ([1]; read-out: AUCLast Ratio (Brain/Plasma)): 1.69 | Kp at 4 h ([1]; read-out: Cmax Ratio (Brain/Plasma)): 1.81 | Cmax [4, 7]: 5610 ng/g | Tmax [4, 7]: 8 h | Kp at 8 h ([4]; Sprague-Dawley, read-out: AUCLast Ratio (Brain/Plasma)): 1.5 | Kp at 8 h ([4]; Sprague-Dawley, read-out: Cmax Ratio (Brain/Plasma)): 1.72 | AUCInf ([4]; brain, PO 50 mg/kg): 102348 ng·h/g | AUClast ([4]; brain, PO 50 mg/kg): 101853 ng·h/g | recovery at 120 min, 5 μM (P-gp; Caco-2, pH 7.4, with none (verapamil 0 μM), Caco-2, Verapamil 0 μM, read-out: Recovery (%) AP-BL): 43.4% | recovery at 120 min, 5 μM (P-gp; Caco-2, pH 7.4, with none (verapamil 0 μM), Caco-2, Verapamil 0 μM, read-out: Recovery (%) BL-AP): 57.1% | recovery at 120 min, 5 μM (P-gp; Caco-2, pH 7.4, with verapamil 100 μM, Caco-2, Verapamil 100 μM, read-out: Recovery (%) AP-BL): 55.5% | recovery at 120 min, 5 μM (P-gp; Caco-2, pH 7.4, with verapamil 100 μM, Caco-2, Verapamil 100 μM, read-out: Recovery (%) BL-AP): 83.2% | Papp A→B at 120 min, 5 μM (P-gp; pH 7.4, Caco-2, Verapamil 0 μM): 0.58 ×10⁻⁶ cm/s | Papp B→A at 120 min, 5 μM (P-gp; pH 7.4, Caco-2, Verapamil 0 μM): 0.35 ×10⁻⁶ cm/s | efflux ratio at 120 min, 5 µM (P-gp; pH 7.4, Caco-2, Verapamil 0 μM): 0.59 | MLM (30 min) ([2]; listed as 2(a)•HCl): 91.7 | HLM (30 min) ([3]; listed as 2(a)•HCl): 97.4% | selectivity over erlotinib for the ephrin receptor kinase, EPHA6 (EPHA6 [5]): did show selectivity over erlotinib | Kd (EPHA6 [6]): 9.1 nM
Compound: Fc1c(Nc2ncnc3cc(OCCOC(F)F)c(OCCOC(F)F)cc23)ccc(Cl)c1Cl [Compound 2A•HCl, N-(3,4-dichloro-2-fluoro-phenyl)-6,7-bis[2 (difluoromethoxy)ethoxy]quinazolin-4-amine]
